# Reference: ChEMBL document CHEMBL4680259, “Discovery of bazedoxifene analogues targeting glycoprotein 130” (Eur J Med Chem, 2020)
# The source made the active and inactive calls. No cut-off for these calls is given here.
# Columns and labels:
# A549 [1] = experiment: Induction of apoptosis in human A549 cells assessed as late apoptotic cells at 9 uM incubated for 24 hrs by annexin V-FITC and propidium iodide staining based flow cytometry analysis (reference value: 1.4 %); type: functional
# [2] = Mean residence time in rat at 5 mg/kg, ig; type: ADME, organism-based; details: in vivo, po
# A549 [3] = experiment: Induction of ROS generation in human A549 cells assessed as fold increase in ROS level at 6 uM after 24 hrs by DCFH-DA staining based flow cytometric analysis relative to control; type: functional
# A549 [4] = experiment: Induction of apoptosis in human A549 cells assessed as necrotic cells at 9 uM incubated for 24 hrs by annexin V-FITC and propidium iodide staining based flow cytometry analysis (reference value: 0.4 %); type: functional
# A549 [5] = experiment: Inhibition of colony formation in human A549 cells incubated for 24 hrs by crystal violet staining based assay; type: functional, cell-based; details: dose 2-10 µM
# [6] = Acute toxicity in ICR mouse assessed as abnormal behaviour at 120 mg/kg measured after 2 weeks; type: organism-based; details: in vivo, 336 h
# [7] = target: T1, Interleukin-6 receptor subunit beta (Homo sapiens) (UniProt P40189); experiment: Inhibition of GP130 in human A549 cells assessed as reduction in survivin protein expression after 24 hrs by Western blot analysis; type: cell-based; details: dose 3-9 µM
# T1 sequence (whole entry): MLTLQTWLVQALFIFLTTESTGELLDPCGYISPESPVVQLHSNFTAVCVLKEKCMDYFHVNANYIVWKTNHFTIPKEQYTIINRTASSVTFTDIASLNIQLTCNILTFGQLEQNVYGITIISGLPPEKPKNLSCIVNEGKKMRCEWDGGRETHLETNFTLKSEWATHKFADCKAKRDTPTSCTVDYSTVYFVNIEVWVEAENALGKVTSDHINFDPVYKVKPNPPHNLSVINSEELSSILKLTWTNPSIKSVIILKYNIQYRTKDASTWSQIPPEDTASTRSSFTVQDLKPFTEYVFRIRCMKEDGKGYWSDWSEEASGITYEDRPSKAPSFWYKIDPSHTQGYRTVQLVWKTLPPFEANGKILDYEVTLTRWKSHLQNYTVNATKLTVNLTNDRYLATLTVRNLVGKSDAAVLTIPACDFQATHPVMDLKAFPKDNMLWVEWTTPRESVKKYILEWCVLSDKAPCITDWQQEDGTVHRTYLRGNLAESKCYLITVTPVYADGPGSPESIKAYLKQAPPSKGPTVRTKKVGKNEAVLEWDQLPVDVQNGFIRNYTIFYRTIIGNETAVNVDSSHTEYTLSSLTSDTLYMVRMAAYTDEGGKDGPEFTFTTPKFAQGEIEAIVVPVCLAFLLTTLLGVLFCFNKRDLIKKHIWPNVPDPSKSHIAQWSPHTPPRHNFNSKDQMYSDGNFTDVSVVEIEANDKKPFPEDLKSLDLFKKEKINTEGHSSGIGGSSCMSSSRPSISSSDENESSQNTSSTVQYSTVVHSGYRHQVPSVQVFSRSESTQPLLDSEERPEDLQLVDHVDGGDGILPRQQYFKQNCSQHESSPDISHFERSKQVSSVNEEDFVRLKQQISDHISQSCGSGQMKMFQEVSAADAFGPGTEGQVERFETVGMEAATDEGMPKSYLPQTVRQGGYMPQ
# [8] = AUC (0 to t) in rat at 5 mg/kg, ig; type: ADME, organism-based; design: dose 5 mg/kg; details: in vivo, po
# A549 [9] = experiment: Induction of apoptosis in human A549 cells assessed as necrotic cells at 6 uM incubated for 24 hrs by annexin V-FITC and propidium iodide staining based flow cytometry analysis (reference value: 0.4 %); type: functional
# A549 [10] = experiment: Antitumor activity against human A549 cells xenografted in nude mouse assessed as decrease in tumor weight at 20 mg/kg, ip administered daily for 21 days and measured every 2 to 3 days; type: functional; details: 504 h, time 21 day
# [11] = AUC (0 to t) in rat at 0.5 mg/kg, iv; type: ADME, organism-based; design: dose 0.5 mg/kg; details: in vivo
# A549 [12] = experiment: Induction of apoptosis in human A549 cells assessed as increase in cleaved PARP level at 3 to 9 uM incubated for 24 hrs by Western blot analysis; type: functional, cell-based; details: dose 3-9 µM
# A549 [13] = experiment: Induction of apoptosis in human A549 cells assessed as late apoptotic cells at 6 uM incubated for 24 hrs by annexin V-FITC and propidium iodide staining based flow cytometry analysis (reference value: 1.4 %); type: functional
# A549 [14] = experiment: Antitumor activity against human A549 cells xenografted in nude mouse assessed as decrease in tumor weight at 10 mg/kg, ip administered daily for 21 days and measured every 2 to 3 days; type: functional; details: 504 h, time 21 day
# [15] = target: T1, Interleukin-6 receptor subunit beta (Homo sapiens); experiment: Binding affinity to D2/D3 domain of FLAG-tagged GP130 (unknown origin) expressed in HEK293 cells assessed as inhibition of rhIL6/Myc-tagged IL6R interaction with GP130 at 10 uM preincubated for 4 hrs followed by stimulation with recombinant human IL6 for 30 mins by co-immunoprecipitation method; type: cell-based; details: time 270.0 min
# A549 [16] = experiment: Induction of apoptosis in human A549 cells assessed as increase in cleaved caspase-7 level at 3 to 9 uM incubated for 24 hrs by Western blot analysis; type: functional, cell-based; details: dose 3-9 µM
# A549 [17] = experiment: Induction of apoptosis in human A549 cells assessed as early apoptotic cells at 9 uM incubated for 24 hrs by annexin V-FITC and propidium iodide staining based flow cytometry analysis (reference value: 0.5 %); type: functional
# [18] = Half life in rat at 5 mg/kg, ig; type: ADME, organism-based; details: in vivo, po
# A549 [19] = experiment: Induction of apoptosis in human A549 cells assessed as viable cells at 3 uM incubated for 24 hrs by annexin V-FITC and propidium iodide staining based flow cytometry analysis (reference value: 97.7 %); type: functional; details: read-out: Activity
# [20] = target: T1, Interleukin-6 receptor subunit beta (Homo sapiens); experiment: Inhibition of GP130 in human A549 cells assessed as reduction in STAT3 dimer DNA binding activity in nuclear extract in presence of hSIE probe at 3 to 9 uM after 24 hrs by EMSA analysis; type: subcellular; details: Nucleus, dose 3-9 µM
smiles,measurement,setting,value
NC(=O)N1N=C(c2ccc(C(F)(F)F)cc2)CC1c1cn(Cc2ccc(OCCN3CCCCCC3)cc2)c2ccc(Br)cc12 (stereo not given),Activity,A549 [1],33%
same,MRT,[2],11.6 h
same,fold change (FC),A549 [3],4.09
same,Activity,A549 [4],2.6%
same,inhibition,A549 [5],Dose-dependent effect
same,Activity,[6],Non-Toxic
same,inhibition,[7],Dose-dependent effect
same,AUC(0-t),[8],304 ng·h/mL
same,Activity,A549 [9],1.9%
same,inhibition in vivo at 20 mg/kg,A549 [10],59%
same,AUC(0-t),[11],468 ng·h/mL
same,Activity,A549 [12],Active
same,Activity,A549 [13],4.9%
same,inhibition in vivo at 10 mg/kg,A549 [14],27.1%
same,Activity,[15],inactive
same,Activity,A549 [16],Active
same,Activity,A549 [17],3.1%
same,half-life,[18],9.8 h
same,viability at 3 µM,A549 [19],96.3%
same,inhibition,[20],Active
